Source: ChEMBL document CHEMBL1143337, “Novel boronated chlorin e6-based photosensitizers: synthesis, binding to albumin and antitumour efficacy” (Bioorg Med Chem, 2009)

Key:
[1] = Antitumor activity against rat M1 cells implanted in rat assessed as increase in tumor volume coefficient followed by light illumination at 25 mg/kg, ip after 14 days relative to control; format: functional; conditions: route intraperitoneal
[2] = Induction of necrosis in rat fibroblasts at 1 uM after 20 min post illumination to red light; format: cell-based; conditions: fibroblast
[3] = Antitumor activity against rat M1 cells implanted in rat assessed as increase in tumor volume coefficient followed by light illumination at 25 mg/kg, ip after 21 days relative to control; format: functional; conditions: route intraperitoneal
Albumin = Albumin (Homo sapiens, UniProt P02768); assay: Binding affinity to human serum albumin; format: ADME; conditions: isolated protein
Sequence of Albumin (P02768 whole entry): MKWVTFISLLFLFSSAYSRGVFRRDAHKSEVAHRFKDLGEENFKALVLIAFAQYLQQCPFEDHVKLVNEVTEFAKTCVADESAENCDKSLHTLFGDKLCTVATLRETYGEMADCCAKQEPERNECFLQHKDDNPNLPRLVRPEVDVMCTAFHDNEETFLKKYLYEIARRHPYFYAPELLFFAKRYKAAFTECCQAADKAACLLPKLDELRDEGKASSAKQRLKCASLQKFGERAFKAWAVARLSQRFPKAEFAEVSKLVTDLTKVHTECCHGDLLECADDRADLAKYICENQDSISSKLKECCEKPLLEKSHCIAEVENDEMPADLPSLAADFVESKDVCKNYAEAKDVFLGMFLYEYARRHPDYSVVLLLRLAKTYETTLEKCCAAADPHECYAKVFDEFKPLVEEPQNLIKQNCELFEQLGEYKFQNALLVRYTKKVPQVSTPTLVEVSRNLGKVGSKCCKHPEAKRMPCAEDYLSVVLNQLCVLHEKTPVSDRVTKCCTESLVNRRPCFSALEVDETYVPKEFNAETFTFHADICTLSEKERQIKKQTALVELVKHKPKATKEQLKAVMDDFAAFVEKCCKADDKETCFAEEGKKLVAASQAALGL

Kb (Albumin): 2 ×10⁵ /M
Compound: C=Cc1c(C)c2cc3nc(c(CC(=O)OC)c4[nH]c(cc5nc(cc1[nH]2)C(C)=C5CC)c(C)c4C(=O)NCCN)[C@@H](CCC(=O)OC)C3C (some centres undefined)
fold change (FC) [1]: 6.6 | Activity [2]: Toxic | fold change (FC) [3]: 14.5
